Results from ChEMBL document CHEMBL5316303, “[1,2,4]Triazolo[3,4-b]benzothiazole Scaffold as Versatile Nicotinamide Mimic Allowing Nanomolar Inhibition of Different PARP Enzymes” (J Med Chem, 2023).

Columns and labels:
[1] = target: T1, Protein mono-ADP-ribosyltransferase PARP10 (Homo sapiens, UniProt Q53GL7); assay: Inhibition of N-terminal MBP tagged/C-terminal PARP10 (unknown origin) expressed in Escherichia coli in presence of NAD+
T1 sequence (Q53GL7 whole entry): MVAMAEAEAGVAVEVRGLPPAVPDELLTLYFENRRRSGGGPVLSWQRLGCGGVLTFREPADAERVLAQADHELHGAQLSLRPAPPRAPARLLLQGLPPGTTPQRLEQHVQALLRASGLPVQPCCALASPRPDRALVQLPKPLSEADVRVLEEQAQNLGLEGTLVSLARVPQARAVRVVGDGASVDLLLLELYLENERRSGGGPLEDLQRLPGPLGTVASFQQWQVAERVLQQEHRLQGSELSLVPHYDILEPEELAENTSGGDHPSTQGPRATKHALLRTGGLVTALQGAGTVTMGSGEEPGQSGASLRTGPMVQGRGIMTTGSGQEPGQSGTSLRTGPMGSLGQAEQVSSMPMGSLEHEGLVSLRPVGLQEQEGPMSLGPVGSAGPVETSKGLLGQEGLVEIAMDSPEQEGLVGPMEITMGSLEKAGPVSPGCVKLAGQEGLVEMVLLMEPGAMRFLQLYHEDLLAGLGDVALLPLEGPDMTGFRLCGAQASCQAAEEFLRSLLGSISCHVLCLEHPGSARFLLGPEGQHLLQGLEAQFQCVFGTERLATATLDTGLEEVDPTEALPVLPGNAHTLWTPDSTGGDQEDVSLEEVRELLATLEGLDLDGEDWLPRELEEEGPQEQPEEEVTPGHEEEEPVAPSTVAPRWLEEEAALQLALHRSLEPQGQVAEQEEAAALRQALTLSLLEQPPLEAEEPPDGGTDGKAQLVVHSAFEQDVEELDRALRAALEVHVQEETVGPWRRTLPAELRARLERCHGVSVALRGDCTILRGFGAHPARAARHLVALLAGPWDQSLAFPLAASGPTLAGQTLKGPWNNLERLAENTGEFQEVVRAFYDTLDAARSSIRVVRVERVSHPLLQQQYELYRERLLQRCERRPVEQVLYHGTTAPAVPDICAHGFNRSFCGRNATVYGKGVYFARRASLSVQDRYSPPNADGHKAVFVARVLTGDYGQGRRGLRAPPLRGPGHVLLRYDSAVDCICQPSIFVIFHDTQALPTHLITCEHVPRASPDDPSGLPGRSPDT

[2] = target: T2, Protein mono-ADP-ribosyltransferase PARP15 (Homo sapiens, UniProt Q460N3); assay: Inhibition of N-terminal MBP tagged/C-terminal PARP15 (unknown origin) expressed in Escherichia coli in presence of NAD+
T2 sequence (Q460N3 whole entry): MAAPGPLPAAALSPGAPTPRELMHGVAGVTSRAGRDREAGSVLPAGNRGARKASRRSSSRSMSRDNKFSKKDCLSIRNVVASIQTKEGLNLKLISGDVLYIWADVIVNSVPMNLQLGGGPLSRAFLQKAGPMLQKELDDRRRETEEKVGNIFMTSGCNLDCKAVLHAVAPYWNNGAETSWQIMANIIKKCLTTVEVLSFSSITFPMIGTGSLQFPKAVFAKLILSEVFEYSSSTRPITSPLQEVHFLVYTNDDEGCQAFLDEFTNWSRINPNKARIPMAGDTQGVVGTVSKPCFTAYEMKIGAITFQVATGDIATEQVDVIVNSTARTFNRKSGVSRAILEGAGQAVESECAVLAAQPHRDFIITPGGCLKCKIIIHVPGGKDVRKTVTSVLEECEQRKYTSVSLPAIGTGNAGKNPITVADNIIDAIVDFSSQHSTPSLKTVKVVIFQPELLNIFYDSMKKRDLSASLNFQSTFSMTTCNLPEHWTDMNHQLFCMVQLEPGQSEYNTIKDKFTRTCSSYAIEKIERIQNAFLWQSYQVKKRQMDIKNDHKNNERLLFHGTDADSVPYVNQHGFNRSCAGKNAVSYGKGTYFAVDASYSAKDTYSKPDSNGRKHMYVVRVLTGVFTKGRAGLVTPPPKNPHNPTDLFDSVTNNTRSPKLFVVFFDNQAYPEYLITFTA

[3] = Stability of the compound in PBS buffer at pH 7.4 measured upto 24 hrs by UV/LC-MS analysis; format: physicochemical; conditions: pH 7.4, 24 h
HEK-293T = assay: Cytotoxicity in […] cells at 10 to 100 uM measured after 24 hrs by WST-1 based colorimetric assay; format: toxicity, cell-based; conditions: human, dose 10-100 µM
[4] = Stability in human plasma measured upto 24 hrs by UV/LC-MS analysis; format: ADME, cell-free
[5] = Stability of the compound in MeOH measured upto 24 hrs by UV/LC-MS analysis; format: physicochemical
[6] = target: Protein mono-ADP-ribosyltransferase PARP6 (Homo sapiens, UniProt Q2NL67); assay: Inhibition of N-terminal 6 His-MBP tagged human PARP6 expressed in Sf21 cells incubated for 18 hrs in presence of NAD+
Protein mono-ADP-ribosyltransferase PARP6, sequence (Q2NL67 whole entry): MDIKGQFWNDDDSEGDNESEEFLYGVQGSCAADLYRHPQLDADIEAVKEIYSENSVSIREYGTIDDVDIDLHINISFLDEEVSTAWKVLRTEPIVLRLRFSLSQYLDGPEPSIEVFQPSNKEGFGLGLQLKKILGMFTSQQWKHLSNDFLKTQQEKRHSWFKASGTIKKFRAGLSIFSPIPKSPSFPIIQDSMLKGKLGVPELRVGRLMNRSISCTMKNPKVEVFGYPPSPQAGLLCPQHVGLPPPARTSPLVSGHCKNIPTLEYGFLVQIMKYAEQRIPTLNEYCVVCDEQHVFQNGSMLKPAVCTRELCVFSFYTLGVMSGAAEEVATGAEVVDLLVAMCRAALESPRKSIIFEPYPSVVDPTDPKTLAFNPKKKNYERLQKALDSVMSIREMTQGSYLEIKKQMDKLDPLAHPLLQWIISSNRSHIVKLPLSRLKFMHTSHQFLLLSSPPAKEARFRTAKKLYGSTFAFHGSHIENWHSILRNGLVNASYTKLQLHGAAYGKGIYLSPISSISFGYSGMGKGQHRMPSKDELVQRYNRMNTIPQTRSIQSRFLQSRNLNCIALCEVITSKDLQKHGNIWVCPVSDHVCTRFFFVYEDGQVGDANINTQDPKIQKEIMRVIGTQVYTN

[7] = target: T3, Protein mono-ADP-ribosyltransferase TIPARP (Homo sapiens, UniProt Q7Z3E1); assay: Inhibition of N-terminal MBP tagged/C-terminal PARP7 (unknown origin) expressed in Escherichia coli in presence of NAD+ by proximity enhanced assay
T3 sequence (Q7Z3E1 whole entry): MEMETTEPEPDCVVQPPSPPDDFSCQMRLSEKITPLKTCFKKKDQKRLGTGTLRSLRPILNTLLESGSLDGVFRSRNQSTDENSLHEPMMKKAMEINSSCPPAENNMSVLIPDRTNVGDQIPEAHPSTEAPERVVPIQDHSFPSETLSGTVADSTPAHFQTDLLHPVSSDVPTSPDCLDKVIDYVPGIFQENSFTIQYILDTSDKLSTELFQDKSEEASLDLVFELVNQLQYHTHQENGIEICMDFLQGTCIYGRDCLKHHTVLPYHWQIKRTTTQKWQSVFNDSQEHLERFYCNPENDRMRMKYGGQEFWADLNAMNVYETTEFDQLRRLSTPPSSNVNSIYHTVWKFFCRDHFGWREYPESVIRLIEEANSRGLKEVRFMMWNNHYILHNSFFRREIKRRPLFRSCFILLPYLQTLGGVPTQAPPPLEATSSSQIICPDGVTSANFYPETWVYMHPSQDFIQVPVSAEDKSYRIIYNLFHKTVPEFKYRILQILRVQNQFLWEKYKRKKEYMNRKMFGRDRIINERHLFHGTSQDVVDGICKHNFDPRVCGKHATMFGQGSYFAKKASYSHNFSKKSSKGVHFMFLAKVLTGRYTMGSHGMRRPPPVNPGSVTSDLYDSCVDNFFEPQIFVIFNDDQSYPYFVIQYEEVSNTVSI

| IC50 [1] | IC50 [2] | Compound | Activity (HEK-293T) | further results |
| --- | --- | --- | --- | --- |
| Not Active |  | Cc1ccc2c(c1)sc1nnc(NCc3ccc(Cl)cc3)n12 |  |  |
| Not Active | Not Active | COc1ccc(OC)c2c1sc1nnc(S)n12 |  |  |
|  |  | Cc1ccc2c(c1)sc1nnc(N)n12 | Non-Toxic | Stability [3]: > 24 h; Stability [4]: > 24 h; Stability [5]: > 24 h |
| Not Active | Not Active | COc1ccc(OC)c2c1sc1nnc(NC(C)=O)n12 |  |  |
|  |  | Oc1ccc2c(c1)sc1nncn12 | Non-Toxic | Stability [3]: > 24 h; IC50 [6]: Not Active; IC50 [7]: Not Active; Stability [4]: > 24 h; Stability [5]: > 24 h |
|  |  | CC(C)c1ccc2c(c1)sc1nncn12 | Toxic |  |
| Not Active |  | COc1ccc(OC)c2c1sc1nnc(NC(=O)c3ccc(Cl)cc3)n12 |  |  |
|  |  | COc1ccc(OC)c2c1sc1nnc(N)n12 | Non-Toxic | Stability [3]: > 24 h; Stability [4]: > 24 h; Stability [5]: > 24 h |
| Not Active | Not Active | COc1ccc(OC)c2c1sc1nnc(SC)n12 |  |  |
|  |  | Oc1ccc(O)c2c1sc1nncn12 | Toxic |  |
| Not Active | Not Active | COc1ccc(OC)c2c1sc1nnc(NC(=O)C(C)(C)C)n12 |  |  |
